According to patent US20250313530A1, “SMALL MOLECULE INHIBITORS OF INTERLEUKIN-4 AND USES THEREOF” (Trustees of Boston University, priority 2024, published 2025):
“Also recorded” adds a separate entry of the source.

Columns and labels:
[1] = target: IL-4 induced STAT-6 phosphorylation in THP-1 monocytes (type II IL-4 receptor); details: previously reported, read-out: EC50 of inhibition of STAT-6 phosphorylation; cited from earlier work
[2] = system: murine IL-4 induced STAT-6 phosphorylation in RAW 264.7 macrophages; assay: RAW 264.7 STAT-6 phosphorylation assay (western blot); type: cell-based
Description: RAW 264.7 cells were purchased from ATCC and maintained in DMEM with 10% heat-inactivated Fetal Bovine Serum. Cells used for assays were between passages 3 and 5. […] The undiluted cell lysates were run SDS-PAGE followed by transfer to Immunoblot PVDF membrane using Biorad equipment. Membranes were incubated with 1:1000 primary antibody overnight at 4° C. Membranes were then incubated with 1:50,000 dilution secondary for 1 hour at room temperature. Membranes were then exposed to Femto ECL for 5 minutes and imaged using a Bio-Rad Gel Doc. The brightness/contrast was adjusted in FIJI and the area under the curve of each lane was quantified. The phosphorylated STAT-6 to STAT-6 ratio was calculated and normalized to the amount of total STAT-6. The data was plotted and analyzed using GraphPad Prism 8.

IL-13 = IL-13 (Homo sapiens, UniProt P35225); details: previously reported; cited from earlier work
IL-13, sequence (P35225 25-146): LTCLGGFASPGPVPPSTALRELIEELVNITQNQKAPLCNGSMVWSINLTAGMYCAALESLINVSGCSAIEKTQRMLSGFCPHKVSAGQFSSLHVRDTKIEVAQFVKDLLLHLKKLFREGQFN

[3] = system: IL-4 induced STAT-6 phosphorylation in Ramos B lymphocytes (type I IL-4 receptor); assay: Ramos STAT-6 phosphorylation assay (western blot); type: cell-based; details: Ramos B lymphocytes
Description: Ramos cells were purchased from ATCC and maintained in RMPI-1640 with 10% heat-inactivated Fetal Bovine Serum. Cells used for assays were between passages 4 and 8. […] Undiluted cell lysates were run SDS-PAGE and transferred to Immunoblot PVDF membrane using Biorad equipment. Membranes were incubated with 1:1000 primary antibody overnight at 4° C. Membranes were then incubated with 1:50,000 dilution secondary for 1 hour at room temperature. Membranes were then exposed to Femto ECL for 5 minutes and imaged using a Bio-Rad Gel Doc. The brightness/contrast was adjusted in FIJI and the area under the curve of each lane was quantified. The phosphorylated STAT-6 to STAT-6 ratio was calculated and normalized to the amount of total STAT-6. The data was plotted and analyzed using GraphPad Prism 9.2.0.

[4] = Mouse hepatic microsome stability; type: in vitro ADME; details: mouse hepatic microsomes
IL-4 = target: T1, IL-4 (Homo sapiens, UniProt P05112); assay: HEK-Blue IL-4/IL-13 reporter assay, IL-4 inhibition; type: cell-based
T1 construct: purchased Acros Biosystems IL4-H4218; host or cells: HEK-293
T1 sequence (P05112 25-153): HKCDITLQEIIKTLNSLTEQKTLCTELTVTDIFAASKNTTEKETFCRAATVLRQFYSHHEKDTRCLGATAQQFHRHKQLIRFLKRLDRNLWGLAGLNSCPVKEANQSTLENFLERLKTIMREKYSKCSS
Description: HEK-Blue IL-4/IL-13 Inhibition assay. HEK-Blue IL-4/IL-13 reporter cell lines were purchased from Invivogen and cultured in DMEM with 10% Heat Inactivated Fetal Bovine Serum (FBS), 100 U/ml-100 μg/ml Pen-Strep, 10 μg/ml blasticidin, 100 μg/ml Normocin and 100 μg/ml Zeocin. Cells were tested for secreted embryonic alkaline phosphatase (SEAP) production induced by IL-4 alone prior to small molecule screening.
22.5 μl of small molecule in DMEM 4% DMSO was added to 22.5 μl of 1 ng/ml IL-4 in DMEM in a non-binding 96-well reaction plate for 30 minutes at room temperature. The reaction plate was further incubated for 30-60 min at 37° C. HEK-Blue IL-4/IL-13 reporter cell line was used between passages 11-17. […] Measurements were done in triplicate. The plate was incubated for ˜22-24 hours at 37° C./5% CO2. Quanti-Blue dye was prepared as per the manufacturer's recommendation and 160 μl was dispensed in each well of a 96-well plate (avoid edges to avoid evaporation), 40 μl of cell supernatant was added to the same plate and incubated for 3 hours at 37° C./5% CO2. Optical density was then measured at 650 nm using Molecular Devices SpectraMax M5 Microplate reader. Data was analyzed and plotted using GraphPad Prism 9.2.0.

[5] = PAMPA membrane permeability; type: in vitro ADME; details: 18 hours incubation
Description: PVDF membranes purchased from Bioassay Systems PAMPA-096 were coated with 5 μL of 4% Phosphatidylcholine (Lecithin, MP Biomedicals 0210214780) in dodecane. […] Permeability was calculated by Pv=C×ln (1−ODA/ODE) cm/s, where ODA is the absorbance of acceptor solution minus blank, and ODE the absorbance of the equilibrium standard minus blank, and C=7.72×10^−6 using an 18-hour incubation time.

B16-F10 cells = assay: In vitro cytotoxicity (CellTiter-Glo); type: cell-based; details: up to 25 μM
Description: CellTiter-Glo 2.0 purchased from Promega G9242) was used to measure cell viability with the Victor-3 plate reader (PerkinElmer) after 24 hours in concentrations of compound up to 25 μM. Vehicle was used as a negative control for both cytotoxicity and growth inhibition, methanol was used as a positive control for cytotoxicity, and 1% FBS was used as a positive control for growth inhibition.

Mouse plasma stability = type: in vitro ADME
Human plasma stability = type: in vitro ADME

EC50 ([2]; Mus musculus, RAW264.7, RAW 264.7 macrophages, murine IL-4, read-out: EC50 of reduction in pSTAT-6 levels): 1280 nM
EC50 ([3]; Homo sapiens, western blot, read-out: EC50 of inhibition of STAT-6 phosphorylation): 1030 nM
Mouse hepatic microsome stability (% remaining after 1 hour) [4]: 86.5%
% Inhibition (IL-4; 10 μM, IL-4, HEK Blue IL-4/IL-13 reporter assay): 97.6 ± 1.57%
inhibition at 10 µM (IL-4; HEK-Blue, 10 μM, IL-4, HEK Blue IL-4/IL-13 reporter assay, read-out: % Inhibition): > 97%
EC50 (IL-4; dose response, IL-4 inhibition, HEK Blue IL-4/IL-13 reporter assay, read-out: EC50): 1320 ± 380 nM
Hill coefficient (IL-4; fit of dose response in HEK Blue IL-4/IL-13 reporter assay): 1.24±0.08
Papp at 18 h, 100 μM [5]: 16.4 ×10⁻⁶ cm/s
Mouse plasma stability (% remaining after 3 hours) (Mouse plasma stability): 97%
Human plasma stability (% remaining after 3 hours) (Human plasma stability): > 99%
SMILES: N#Cc1c(-c2ccc(O)c(O)c2)cc(-c2ccc(F)cc2)nc1N [Nico-52, 4-(3,4-dihydroxyphenyl)-6-(4fluorophenyl)-2-imino-1,2-dihydropyridine-3-carbonitrile, reference compound]
EC50 [1]: 3100 nM
STAT-6 levels ([2]; total STAT-6, RAW 264.7): not affected
fold higher inhibition for IL-4 activity than IL-13 activity (IL-13): 10 fold
inhibition at 0.5 µM ([3]; Homo sapiens, 500 nM, read-out: percent inhibition of STAT-6 phosphorylation): 14.6%
inhibition of phosphorylation of STAT-6 ([3]; 50 nM): minimum inhibition
Cytotoxicity in B16-F10 cells (24 hours) (B16-F10 cells): no toxicity; also recorded: n.s. < 25 μM
